Results on 18 compounds are retold here after ChEMBL document CHEMBL5331101, “Synthesis and evaluation of N-sulfonylpiperidine-3-carboxamide derivatives as capsid assembly modulators inhibiting HBV in vitro and in HBV-transgenic mice” (Eur J Med Chem, 2023).

Data set [1] can be described thus: Selectivity index, ratio of CC50 for cytotoxicity against human HepAD38 cells to EC50 for antiviral activity against HBV infected in human HePAD38 cells. It counts as toxicity, cell-based. To be noted: read-out: Ratio CC50/EC50.
Data set [2] deals with Hepatitis B virus. Briefly: Antiviral activity against HBV infected in human HePAD38 cells assessed as reduction in intracellular core HBV DNA level at 5 uM incubated for 6 days by qPCR analysis relative to control. It counts as functional. Details: scale not given: the % may be the effect or the level left. As to conditions: time 6 day. In general terms: Real-time PCR tracks product formation cycle by cycle.

The subject of data set [3] is Hepatitis B virus. Briefly: Antiviral activity against HBV infected in human HePAD38 assessed as reduction on HBsAg level at 5 uM by ELISA analysis relative to control. The format is functional. More on the design: scale not given: the % may be the effect or the level left.
The test system of data set [4] is Hepatitis B virus. The data set is described as follows: Antiviral activity against HBV infected in human HePAD38 assessed as reduction on HBeAg level at 5 uM by ELISA analysis relative to control. The format is functional. More on the design: scale not given: the % may be the effect or the level left. (An ELISA detects its analyte on a solid surface through an enzyme-linked reagent.)

A short description of data set [5]: Cytotoxicity against human HepAD38 cells assessed as reduction in cell viability incubated for 6 days by CCK-8 assay. To be noted: HePAD38, 144 h, time 6 day. It counts as functional. In general terms: Tetrazolium assays rely on reduction of a dye to a coloured formazan, in cell work by metabolically active cells.
Data set [6] deals with Hepatitis B virus. Briefly: Antiviral activity against HBV infected in human HePAD38 cells assessed as decay of viral capsid protein by agarose gel electrophoresis-based assay. It counts as functional, organism-based.
The subject of data set [7] is Hepatitis B virus. The data set is described as follows: Antiviral activity against HBV infected in human HePAD38 cells assessed as decay of viral core protein by agarose gel electrophoresis-based assay. The format is functional, organism-based.
For data set [8], the system named is Hepatitis B virus. The data set is described as follows: Antiviral activity against HBV infected in human HePAD38 cells assessed as reduction of capsid associated HBV DNA. The format is functional, organism-based.
The test system of data set [9] is Hepatitis B virus. Briefly: Antiviral activity against HBV infected in human HepAD38 cells assessed as effect on capsid morphology at 20 uM incubated for 3 to 7 days by transmission electron microscopy. It counts as functional, organism-based. As to conditions: time 3-7 day.
Data set [10] has as its system Hepatitis B virus. Briefly: Antiviral activity against HBV infected in human HePAD38 assessed as reduction on HBeAg level at 20 uM by ELISA analysis relative to control. More on the design: scale not given: the % may be the effect or the level left. It counts as functional.
Data set [11] deals with Hepatitis B virus. Briefly: Antiviral activity against HBV infected in human HePAD38 cells assessed as reduction in intracellular core HBV DNA level at 20 uM incubated for 6 days by qPCR analysis relative to control. The format is functional. Details: scale not given: the % may be the effect or the level left. To be noted: time 6 day.
Data set [12] concerns Hepatitis B virus. Briefly: Antiviral activity against HBV infected in human HePAD38 assessed as reduction on HBsAg level at 20 uM by ELISA analysis relative to control. The format is functional. Details: scale not given: the % may be the effect or the level left.
Data set [13] has as its system Hepatitis B virus. Briefly: Antiviral activity against HBV infected in human HePAD38 cells assessed as reduction in capsid formation at 2 uM measured for 6 days by agarose gel electrophoresis-based assay. It counts as functional, organism-based. As to conditions: time 6.0 day.
The test system of data set [14] is Hepatitis B virus. Briefly: Antiviral activity against HBV infected in human HePAD38 assessed as reduction on HBsAg level at 2 uM by ELISA analysis relative to control. It counts as functional. More on the design: scale not given: the % may be the effect or the level left.
For data set [15], the system named is Hepatitis B virus. Briefly: Antiviral activity against HBV infected in human HePAD38 cells assessed as reduction in intracellular core HBV DNA level at 2 uM incubated for 6 days by qPCR analysis relative to control. It counts as functional. More on the design: scale not given: the % may be the effect or the level left. To be noted: time 6 day.
Data set [16] concerns Hepatitis B virus. The data set is described as follows: Antiviral activity against HBV infected in human HePAD38 assessed as reduction on HBeAg level at 2 uM by ELISA analysis relative to control. The format is functional. More on the design: scale not given: the % may be the effect or the level left.
The target in data set [17] is Core antigen (Hepatitis B virus) (UniProt Q03732). Briefly: Modulation of capsid assembly in HBV infected in human HePAD38 cells assessed as inhibition of viral DNA replication at 5 uM incubated for 3 to 7 days by electron microscopic analysis. The format is cell-based. To be noted: filed as modulator, time 3-7 day.
Data set [18] concerns Hepatitis B virus. The data set is described as follows: Antiviral activity against HBV infected in human HePAD38 cells assessed as reduction in intracellular core HBV DNA level at 25 nM incubated for 6 days by qPCR analysis relative to control. More on the design: scale not given: the % may be the effect or the level left. As to conditions: time 6 day. The format is functional.

The subject of data set [19] is Hepatitis B virus. Briefly: Antiviral activity against ETV-resistant HBV infected in human HepG2 cells assessed as inhibition of viral replication. It counts as functional, organism-based.
Data set [20] deals with Hepatitis B virus. Briefly: Antiviral activity against HBV infected in human HePAD38 assessed as reduction on HBsAg level at 25 nM by ELISA analysis relative to control. The format is functional. Details: scale not given: the % may be the effect or the level left.
Data set [21] has as its system Hepatitis B virus. The data set is described as follows: Antiviral activity against wild type HBV infected in human HepG2 cells assessed as inhibition of viral replication. It counts as functional, organism-based.
In data set [22] the test system is Hepatitis B virus. Briefly: Antiviral activity against HBV infected in human HePAD38 assessed as reduction on HBeAg level at 25 nM by ELISA analysis relative to control. Details: scale not given: the % may be the effect or the level left. The format is functional.

Calls of active or inactive are those of the source. The calls are words filed in the database; no cut-off is given here.

Chain of Core antigen (Hepatitis B virus) (Q03732 as listed by the source): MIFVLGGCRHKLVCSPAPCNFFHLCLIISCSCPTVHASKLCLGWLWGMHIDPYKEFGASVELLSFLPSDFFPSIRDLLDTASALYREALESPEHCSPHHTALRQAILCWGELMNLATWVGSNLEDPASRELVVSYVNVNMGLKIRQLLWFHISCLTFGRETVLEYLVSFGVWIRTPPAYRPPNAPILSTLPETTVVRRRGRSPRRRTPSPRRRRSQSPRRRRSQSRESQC

For the compound `Cc1cc(NC(=O)c2cccc(S(=O)(=O)N[C@H]3CCOC3)c2)ccc1F`, the selectivity ratio in data set [1] is > 370. The Activity stood at 5.8% with Hepatitis B virus [2], 97% with Hepatitis B virus [3] and 36.1% with Hepatitis B virus [4]. Also, in [5], the CC50 – broadly, the concentration at which the toxic effect on the cells reaches its halfway point – is > 100000 nM. Besides, the result with Hepatitis B virus [6], with Hepatitis B virus [7] and with Hepatitis B virus [9] was inactive. Also, the EC50 – broadly, the concentration needed to bring the measured effect to its halfway point – in the data set with Hepatitis B virus [8] stood at 270 nM.

As to `Cc1c(C#N)c(S(=O)(=O)N2CCC[C@H](C(=O)Nc3ccc(F)c(Cl)c3)C2)c(C)n1C`, in [1], the selectivity ratio was > 22.7. The figures for the Activity with Hepatitis B virus [10], in the data set on Hepatitis B virus [11] and with Hepatitis B virus [12] were 36%, 11.1% and 99.8%, respectively. Further, the CC50 in data set [5] was > 100000 nM. The result with Hepatitis B virus [6] and with Hepatitis B virus [7] was inactive. In addition, in the data set on Hepatitis B virus [8], the EC50 amounted to 4410 nM.

For the compound `CCOC(=O)c1c(S(=O)(=O)N2CCCC(C(=O)Nc3ccc(F)cc3)C2)c(C)n(C)c1C` (stereo not drawn), the Activity in the data set on Hepatitis B virus [10] is on record as 62.4%; in the data set with Hepatitis B virus [11] it was 53.4%; in the data set on Hepatitis B virus [12], 86.6%.

Turning to `CCOC(=O)c1c(S(=O)(=O)N2CCCC(C(=O)Nc3ccc(F)c(Cl)c3)C2)c(C)n(CC)c1C` (stereo not drawn), the Activity with Hepatitis B virus [10] is on record as 66%; with Hepatitis B virus [11], 44.2%; in the data set on Hepatitis B virus [12], 98.2%.

With `COC(=O)c1c(S(=O)(=O)N2CCC[C@H](C(=O)Nc3ccc(F)c(C)c3)C2)c(C)n(CC(C)=O)c1C`, the Activity is 49.4% with Hepatitis B virus [10], 38.2% in the data set with Hepatitis B virus [11] and 92.8% in the data set with Hepatitis B virus [12].

Take `COC(=O)c1c(S(=O)(=O)N2CCC[C@H](C(=O)Nc3ccc(F)c(Cl)c3)C2)c(C)n(C)c1C`: the Activity in the data set with Hepatitis B virus [10] was found to be 67.4%; in the data set with Hepatitis B virus [11], 39.7%; with Hepatitis B virus [12], 94%.

Regarding `COC(=O)c1c(S(=O)(=O)N2CCC[C@H](C(=O)Nc3ccc(F)c(C#N)c3)C2)c(C)n(C)c1C`, the Activity is given as 61.9% in the data set on Hepatitis B virus [10], 29.7% in the data set with Hepatitis B virus [11] and 92.4% in the data set on Hepatitis B virus [12].

In the case of `COC(=O)c1c(S(=O)(=O)N2CCC[C@H](C(=O)Nc3ccc(F)c(C)c3)C2)c(C)n(C)c1C`, the figures for the Activity in the data set with Hepatitis B virus [10], in the data set with Hepatitis B virus [11] and in the data set with Hepatitis B virus [12] were 54.6%, 29.8% and 97.3%, respectively.

As for `COC(=O)c1c(S(=O)(=O)N2CCC[C@H](C(=O)Nc3ccc(F)c(C)c3)C2)c(C)n(C(F)F)c1C`, the selectivity ratio in data set [1] is 179. Besides, the Activity in the data set with Hepatitis B virus [10] is on record as 37.9%; in the data set on Hepatitis B virus [11], 9.6%; in the data set on Hepatitis B virus [12], 92.8%. For the same compound, the CC50 in data set [5] came to 59200 nM. Moreover, the result in the data set with Hepatitis B virus [6] and in the data set on Hepatitis B virus [7] was inactive. The EC50 in the data set on Hepatitis B virus [8] was found to be 330 nM.

Take `COC(=O)C1=C(C)NC(c2ncc(F)cc2F)=N[C@H]1c1ccc(F)cc1Cl`: the outcome (in the data set with Hepatitis B virus [13]; in the data set with Hepatitis B virus [6]; with Hepatitis B virus [7]; in data set [17]) was Active. The Activity in the data set with Hepatitis B virus [14] turned out to be 88.5%; in the data set with Hepatitis B virus [15], 4.9%; in the data set with Hepatitis B virus [16], 31.8%. Further, in [5], the CC50 was > 20000 nM. Moreover, the EC50 with Hepatitis B virus [8] is 50 nM.

For `CCOC(=O)c1c(S(=O)(=O)N2CCC[C@H](C(=O)Nc3ccc(F)c(C)c3)C2)c(C)n(C2CC2)c1C`, the selectivity ratio in [1] was > 17. The Activity in the data set with Hepatitis B virus [10] is on record as 41.6%; in the data set on Hepatitis B virus [11], 7.7%; in the data set with Hepatitis B virus [12] it was 91.6%. For the same compound, in data set [5], the CC50 is > 100000 nM. Besides, the result in the data set on Hepatitis B virus [6] and with Hepatitis B virus [7] was inactive. Besides, the EC50 in the data set with Hepatitis B virus [8] amounted to 5870 nM.

`CCOC(=O)c1c(S(=O)(=O)N2CCCC(C(=O)Nc3ccc(F)c(Cl)c3)C2)c(C)n(C)c1C` (stereo not drawn): the Activity with Hepatitis B virus [10] is recorded as 27.1%; with Hepatitis B virus [11], 11.8%; in the data set on Hepatitis B virus [12] it was 94.4%. Further, the result with Hepatitis B virus [6] and in the data set on Hepatitis B virus [7] was Active.

Take `CCOC(=O)c1c(S(=O)(=O)N2CCCC(C(=O)Nc3ccc(F)cc3F)C2)c(C)n(C)c1C` (stereo not drawn): the Activity was 54% in the data set on Hepatitis B virus [10], 44.9% in the data set with Hepatitis B virus [11] and 93.5% in the data set on Hepatitis B virus [12].

Turning to `COC(=O)c1c(C)[nH]c(C)c1S(=O)(=O)N1CCC[C@H](C(=O)Nc2ccc(F)c(C)c2)C1`, the Activity in the data set with Hepatitis B virus [10] came out at 73.2%; with Hepatitis B virus [11] it was 3.7%; in the data set on Hepatitis B virus [12], 106.1%.

Regarding `CCOC(=O)c1c(S(=O)(=O)N2CCCC(C(=O)Nc3ccc(F)c(F)c3)C2)c(C)n(C)c1C` (stereo not drawn), in data set [1], the selectivity ratio is > 192. The Activity in the data set on Hepatitis B virus [10] was 27.2%; in the data set with Hepatitis B virus [11], 11.5%; in the data set with Hepatitis B virus [12] it was 96%. In addition, in [5], the CC50 is > 100000 nM. Also, the outcome in the data set with Hepatitis B virus [6] and in the data set with Hepatitis B virus [7] was Active. In addition, the EC50 in the data set with Hepatitis B virus [8] was found to be 520 nM.

As for `C=C1[C@H](CO)[C@@H](O)C[C@@H]1n1cnc2c(=O)[nH]c(N)nc21` [ENTECAVIR ANHYDROUS], the selectivity ratio in data set [1] was > 155. The CC50 in [5] is > 500 nM. Also, the Activity with Hepatitis B virus [18] is listed as 3.1%; with Hepatitis B virus [20], 93.7%; with Hepatitis B virus [22], 93.4%. In addition, the EC50 with Hepatitis B virus [19] came to 340 nM; in the data set with Hepatitis B virus [8] it was 3 nM; with Hepatitis B virus [21], 270 nM.

On to `COC(=O)c1c(S(=O)(=O)N2CCO[C@H](C(=O)Nc3ccc(F)c(C)c3)C2)c(C)n(C)c1C`, for which the Activity in the data set on Hepatitis B virus [10] amounted to 59%; with Hepatitis B virus [11] it was 39%; in the data set with Hepatitis B virus [12], 88.2%.

In the case of `COC(=O)c1c(S(=O)(=O)N2CCC[C@@H](C(=O)Nc3ccc(F)c(C)c3)C2)c(C)n(C)c1C`, the Activity in the data set on Hepatitis B virus [10] is on record as 62.2%; in the data set with Hepatitis B virus [11], 34.9%; in the data set on Hepatitis B virus [12] it was 100.5%.
